According to patent publication US10004701B2, “Methods and compositions for treating infection” (UNIVERSITY OF ROCHESTER, priority 2012, dated 2018):
Read-outs that look alike come from different tables or passages of the source.

Experiments:
Assay in all cases: AK assay 384-well format, Prestwick library screening
E. faecium = assay type: cell-based, Enterococcus faecium; conditions: 50 μM final drug concentration; for fold induction at 50 µM: Enterococcus faecium, 3 h
[1] = system: S. aureus strain USA300-0114; assay type: cell-based, Staphylococcus aureus; conditions: 50 μM final drug concentration; for fold induction at 50 µM: Staphylococcus aureus, USA300, 3 h
K. pneumoniae = assay type: cell-based, Klebsiella pneumoniae; conditions: 50 μM final drug concentration; for fold induction at 50 µM: Klebsiella pneumoniae, 3 h
[2] = system: A. baumannii strain 98-37-09; assay type: cell-based, Acinetobacter baumannii; conditions: 50 μM final drug concentration; for fold induction at 50 µM: Acinetobacter baumannii, 983709, 3 h
P. aeruginosa = assay type: cell-based, Pseudomonas aeruginosa; conditions: 50 μM final drug concentration; for fold induction at 50 µM: Pseudomonas aeruginosa, 3 h
E. cloacae = assay type: cell-based, Enterobacter cloacae; conditions: 50 μM final drug concentration; for fold induction at 50 µM: Enterobacter cloacae, 3 h
E. coli = assay type: cell-based, Escherichia coli; conditions: 50 μM final drug concentration; for fold induction at 50 µM: Escherichia coli, 3 h
[3] = cutoff for positive-scoring molecules 3-fold increase
[4] = planktonic E. faecium, 384-well, cutoff for positive-scoring molecules 3-fold increase, read-out: AK-based Prestwick Library Screening Results: E. faecium (increase in extracellular AK activity)
[5] = planktonic S. aureus, 384-well, cutoff for positive-scoring molecules 3-fold increase, read-out: AK-based Prestwick Library Screening Results: S. aureus (increase in extracellular AK activity)
[6] = planktonic K. pneumoniae, 384-well, cutoff for positive-scoring molecules 3-fold increase, read-out: AK-based Prestwick Library Screening Results: K. pneumoniae (increase in extracellular AK activity)
[7] = planktonic A. baumannii, 384-well, cutoff for positive-scoring molecules 3-fold increase, read-out: AK-based Prestwick Library Screening Results: A. baumannii (increase in extracellular AK activity)
[8] = planktonic P. aeruginosa, 384-well, cutoff for positive-scoring molecules 3-fold increase, read-out: AK-based Prestwick Library Screening Results: P. aeruginosa (increase in extracellular AK activity)
[9] = planktonic E. cloacae, 384-well, cutoff for positive-scoring molecules 3-fold increase, read-out: AK-based Prestwick Library Screening Results: E. cloacae (increase in extracellular AK activity)
[10] = planktonic E. coli, 384-well, cutoff for positive-scoring molecules 3-fold increase, read-out: AK-based Prestwick Library Screening Results: E. coli (increase in extracellular AK activity)
[11] = planktonic, cutoff for positive 3-fold increase

C[N+](C)(CCOc1ccccc1)Cc1ccccc1.O=C([O-])c1cc2ccccc2cc1O [Bephenium hydroxynaphthoate]
AK-based Prestwick Library Screening Results, E. faecium (fold increase in extracellular AK activity) (E. faecium; [3]): 1.0
AK-based Prestwick Library Screening Results, S. aureus (fold increase in extracellular AK activity) [1, 3]: 1.2
AK-based Prestwick Library Screening Results, K. pneumoniae (fold increase in extracellular AK activity) (K. pneumoniae; [3]): 1.0
AK-based Prestwick Library Screening Results, A. baumannii (fold increase in extracellular AK activity) [2, 3]: 0.9
AK-based Prestwick Library Screening Results, P. aeruginosa (fold increase in extracellular AK activity) (P. aeruginosa; [3]): 1.0
AK-based Prestwick Library Screening Results, E. cloacae (fold increase in extracellular AK activity) (E. cloacae; [3]): 2.0
AK-based Prestwick Library Screening Results, E. coli (fold increase in extracellular AK activity) (E. coli; [3]): 1.2

CC(=O)OCC(=O)[C@@]1(O)CC[C@H]2[C@@H]3CCC4=CC(=O)CC[C@]4(C)[C@@]3(F)[C@@H](O)C[C@@]21C [Fludrocortisone acetate]
fold induction at 50 µM (E. faecium; [4]): 1.1
fold induction at 50 µM [1, 5]: 1
fold induction at 50 µM (K. pneumoniae; [6]): 1
fold induction at 50 µM [2, 7]: 1.2
fold induction at 50 µM (P. aeruginosa; [8]): 1.2
fold induction at 50 µM (E. cloacae; [9]): 1.4
fold induction at 50 µM (E. coli; [10]): 1.3

CC(=O)NC(CC(=O)O)C(=O)O (racemic) [Aspartic acid, N-acetyl (R,S)]
AK-based Prestwick Library Screening Results, E. faecium (increase in extracellular AK activity) (E. faecium; planktonic E. faecium, cutoff for positive-scoring molecules 3-fold increase): 0.9
AK-based Prestwick Library Screening Results, S. aureus (increase in extracellular AK activity) ([1]; planktonic S. aureus, cutoff for positive-scoring molecules 3-fold increase): 0.5
AK-based Prestwick Library Screening Results, K. pneumoniae (increase in extracellular AK activity) (K. pneumoniae; planktonic K. pneumoniae, cutoff for positive-scoring molecules 3-fold increase): 0.5
AK-based Prestwick Library Screening Results, A. baumannii (increase in extracellular AK activity) ([2]; planktonic A. baumannii, cutoff for positive-scoring molecules 3-fold increase): 0.6
AK-based Prestwick Library Screening Results, P. aeruginosa (increase in extracellular AK activity) (P. aeruginosa; planktonic P. aeruginosa, cutoff for positive-scoring molecules 3-fold increase): 0.6
AK-based Prestwick Library Screening Results, E. cloacae (increase in extracellular AK activity) (E. cloacae; planktonic E. cloacae, cutoff for positive-scoring molecules 3-fold increase): 0.7
AK-based Prestwick Library Screening Results, E. coli (increase in extracellular AK activity) (E. coli; planktonic E. coli, cutoff for positive-scoring molecules 3-fold increase): 0.6

CC(C(=O)O)c1ccc(C(=O)c2ccccc2)s1 (stereo not shown) [Tiaprofenic acid]
fold induction at 50 µM (E. faecium; planktonic E. faecium, cutoff for positive-scoring molecules 3-fold increase, read-out: AK-based Prestwick Library Screening Results, E. faecium (increase in extracellular AK activity)): 0.8
fold induction at 50 µM ([1]; planktonic S. aureus, cutoff for positive-scoring molecules 3-fold increase, read-out: AK-based Prestwick Library Screening Results, S. aureus (increase in extracellular AK activity)): 0.5
fold induction at 50 µM (K. pneumoniae; planktonic K. pneumoniae, cutoff for positive-scoring molecules 3-fold increase, read-out: AK-based Prestwick Library Screening Results, K. pneumoniae (increase in extracellular AK activity)): 0.5
fold induction at 50 µM ([2]; planktonic A. baumannii, cutoff for positive-scoring molecules 3-fold increase, read-out: AK-based Prestwick Library Screening Results, A. baumannii (increase in extracellular AK activity)): 0.7
fold induction at 50 µM (P. aeruginosa; planktonic P. aeruginosa, cutoff for positive-scoring molecules 3-fold increase, read-out: AK-based Prestwick Library Screening Results, P. aeruginosa (increase in extracellular AK activity)): 0.6
fold induction at 50 µM (E. cloacae; planktonic E. cloacae, cutoff for positive-scoring molecules 3-fold increase, read-out: AK-based Prestwick Library Screening Results, E. cloacae (increase in extracellular AK activity)): 0.8
fold induction at 50 µM (E. coli; planktonic E. coli, cutoff for positive-scoring molecules 3-fold increase, read-out: AK-based Prestwick Library Screening Results, E. coli (increase in extracellular AK activity)): 0.6

CC(O)Cn1cnc2c1c(=O)n(C)c(=O)n2C (stereo not shown) [Proxyphylline]
fold induction at 50 µM (E. faecium; planktonic, cutoff for positive-scoring molecules 3-fold increase, read-out: AK-based Prestwick Library Screening Results, E. faecium (fold increase in extracellular AK activity)): 0.9
fold induction at 50 µM ([1]; planktonic, cutoff for positive-scoring molecules 3-fold increase, read-out: AK-based Prestwick Library Screening Results, S. aureus (fold increase in extracellular AK activity)): 0.5
fold induction at 50 µM (K. pneumoniae; planktonic, cutoff for positive-scoring molecules 3-fold increase, read-out: AK-based Prestwick Library Screening Results, K. pneumoniae (fold increase in extracellular AK activity)): 0.5
fold induction at 50 µM ([2]; planktonic, cutoff for positive-scoring molecules 3-fold increase, read-out: AK-based Prestwick Library Screening Results, A. baumannii (fold increase in extracellular AK activity)): 0.6
fold induction at 50 µM (P. aeruginosa; planktonic, cutoff for positive-scoring molecules 3-fold increase, read-out: AK-based Prestwick Library Screening Results, P. aeruginosa (fold increase in extracellular AK activity)): 0.5
fold induction at 50 µM (E. cloacae; planktonic, cutoff for positive-scoring molecules 3-fold increase, read-out: AK-based Prestwick Library Screening Results, E. cloacae (fold increase in extracellular AK activity)): 0.5
fold induction at 50 µM (E. coli; planktonic, cutoff for positive-scoring molecules 3-fold increase, read-out: AK-based Prestwick Library Screening Results, E. coli (fold increase in extracellular AK activity)): 0.5

Cc1cnc(C(=O)NCCc2ccc(S(=O)(=O)NC(=O)NC3CCCCC3)cc2)cn1 [Glipizide]
fold induction at 50 µM (E. faecium; [4]): 0.9
fold induction at 50 µM [1, 5]: 1.2
fold induction at 50 µM (K. pneumoniae; [6]): 0.8
fold induction at 50 µM [2, 7]: 1
fold induction at 50 µM (P. aeruginosa; [8]): 1
fold induction at 50 µM (E. cloacae; [9]): 1.3
fold induction at 50 µM (E. coli; [10]): 1.2

NC[C@H]1O[C@H](O[C@H]2[C@H](O)[C@@H](O[C@H]3O[C@H](CO)[C@@H](O)[C@H](N)[C@H]3O)[C@H](N)C[C@@H]2N)[C@H](O)[C@@H](O)[C@@H]1O.O=S(=O)(O)O [Kanamycin A sulfate]
AK-based Prestwick Library Screening Results, E. faecium (fold increase in extracellular AK activity) (E. faecium; [11]): 0.9
AK-based Prestwick Library Screening Results, S. aureus (fold increase in extracellular AK activity) [1, 11]: 2.5
AK-based Prestwick Library Screening Results, K. pneumoniae (fold increase in extracellular AK activity) (K. pneumoniae; [11]): 1.0
AK-based Prestwick Library Screening Results, A. baumannii (fold increase in extracellular AK activity) [2, 11]: 1.1
AK-based Prestwick Library Screening Results, P. aeruginosa (fold increase in extracellular AK activity) (P. aeruginosa; [11]): 1.0
AK-based Prestwick Library Screening Results, E. cloacae (fold increase in extracellular AK activity) (E. cloacae; [11]): 1.9
AK-based Prestwick Library Screening Results, E. coli (fold increase in extracellular AK activity) (E. coli; [11]): 1.2
